Data as given in patent US9533973B2, “Allosteric modulators of 5-hydroxytryptamine 2C receptor (5-HT2CR)” (THE BOARD OF REGENTS OF THE UNIVERSITY OF TEXAS SYSTEM, priority 2011, dated 2017).

Assays:
[1] = system: rats; experiment: Spontaneous locomotor activity (open field horizontal ambulation); assay type: in vivo, rat
Protocol: Locomotor activity was monitored and quantified under low light conditions using a modified open field activity system (San Diego Instruments, San Diego, Calif.) according to previous publications with minor modifications (Cunningham et al., 2011, Neuropharmacology 61:513-523). Clear Plexiglass chambers (40×40×40 cm) were surrounded by a 4×4 photobeam matrix positioned 4 cm from the chamber floor. Consecutive photobeam breaks within the 16×16 cm of the activity monitor were recorded as central ambulation. Peripheral ambulation was counted as consecutive beam breaks in the surrounding perimeter. Central and peripheral ambulations were summed to provide a measure of total horizontal ambulation. […] The effects of CYD-1-78-2 and CYD-1-79 alone or in combination with the selective 5-HT2CR agonist WAY163909 were established in a within-subjects design. To control for order effects, drug doses and vehicles were administered in random sequence to individual rats across sessions such that all rats received all treatment combinations and were tested every three days. Rats received vehicle (saline, 1 mL/kg, i.p.), CYD-1-78-2 (0.5, 1, or 3 mg/kg, i.p.) or the combination of CYD-1-78-2 (0.5 mg/kg, i.p.) plus WAY163909 (1 mg/kg, i.p.) immediately prior to placement in activity monitors on each test day; locomotor activity was assessed for 90 min. In a separate cohort of rats, rats received vehicle (saline, 1 mL/kg, i.p.), CYD-1-79 (0.5, 1, or 5 mg/kg, i.p.) or the combination of CYD-1-79 (0.5 mg/kg, i.p.) plus WAY163909 (1 mg/kg, i.p.) immediately prior to placement in activity monitors on each test day; locomotor activity was assessed for 90 min. The combination of CYD-1-78-2 plus WAY163909 or CYD-1-79 plus WAY163909 was administered simultaneously.
Locomotor activity data are presented as mean total horizontal ambulation (±SEM) over the entire 90-min session or within 5 min time bins across the session. A two-way ANOVA for repeated measures for the factors of treatment and time was conducted. The main effect of treatment on total horizontal ambulation was analyzed with a repeated measures, one-way analysis of variance using the GLM procedure (SAS for Windows). Subsequent a priori comparisons between means for total horizontal ambulation were made using the Dunnett's procedure, with vehicle (saline) as the comparator.

[2] = target: T1, 5-HT2CR (Homo sapiens, UniProt P28335); design: host or cells: stably transfected HEK293 cells (Im et al., Mol. Pharmacol. 64, 78-84, 2003); conditions: Im et al., 2003, cited from earlier work
T1 sequence (P28335 33-458): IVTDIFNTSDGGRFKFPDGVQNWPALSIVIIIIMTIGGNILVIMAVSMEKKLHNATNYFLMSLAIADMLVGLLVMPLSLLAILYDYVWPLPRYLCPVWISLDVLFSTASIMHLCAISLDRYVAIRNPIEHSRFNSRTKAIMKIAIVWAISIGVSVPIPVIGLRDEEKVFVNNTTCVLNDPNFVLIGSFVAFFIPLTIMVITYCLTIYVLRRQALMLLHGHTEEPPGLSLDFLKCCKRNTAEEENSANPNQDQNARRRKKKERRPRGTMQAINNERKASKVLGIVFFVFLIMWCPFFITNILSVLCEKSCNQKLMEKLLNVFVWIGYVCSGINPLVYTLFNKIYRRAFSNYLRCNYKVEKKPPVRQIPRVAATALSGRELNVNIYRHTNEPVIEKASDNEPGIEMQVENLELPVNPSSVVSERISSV

## CCCCCCCCCCC[C@@H]1CCN[C@H](C(=O)N[C@@H]([C@H]2O[C@H](SC)[C@H](O)[C@@H](O)[C@H]2O)[C@H](C)Cl)C1.Cl [CYD-1-78-2]
[1]; 0.5 mg/kg alone
  effect on spontaneous locomotor activity: ineffective
[1]; 0.5 mg/kg i.p. plus WAY163909 1 mg/kg i.p., 90-min session, p<0.05
  total horizontal ambulation versus saline, combination with WAY163909: significantly reduces
[1]; 0.5 mg/kg i.p. plus WAY163909 1 mg/kg i.p., CYD-1-78-2: interval 1 and 2, CYD-1-79: interval 2, p<0.05
  horizontal ambulation versus saline in 5-min intervals, combination with WAY163909: significantly reduces
[1]; 1 mg/kg i.p., at interval 4, 5 and 6, p<0.05
  horizontal ambulation versus saline in 5-min intervals: significantly reduces
[1]; 1 mg/kg i.p., p<0.05
  total horizontal ambulation summed across the 90-min test session versus saline: significantly reduces
[1]; 3 mg/kg i.p., at interval 1, 2, 3 and 11, p<0.05
  horizontal ambulation versus saline in 5-min intervals: significantly reduces
[1]; 3 mg/kg i.p., p<0.05
  total horizontal ambulation summed across the 90-min test session versus saline: significantly reduces
[1]; 1 and 3 mg/kg, i.p., unhabituated animals, 90 minutes
  total ambulations: dose-dependently decreases
[1]; with WAY163909
  selective 5-HT2CR agonist-mediated suppression of spontaneous locomotor activity: augment
[2]; HEK293 cell line (~45 pmol/mg protein)
  intrinsic activation of GTPγS binding and IP3 release/[3H]IP accumulation in the absence of 5-HT: detected intrinsic activation
[2]
  concentrations giving positive allosteric modulation in the presence of 5-HT: less than 10 μM
[2]; concentrations above 10 μM
  modulation at higher concentrations in the presence of 5-HT: negative allosteric modulation
